Holding throughout (experiment): CRE-luciferase cAMP reporter, HEK293
Common to all, as to assay type: cell-based, Homo sapiens

One assay deals with T1, CB2-ICL2 (i2).
T1 construct: gene CNR2; Flag-tagged CB2 with second intracellular loop replaced by that of CB1; HEK293
Conditions: agonist; inhibition of cAMP elevated by 10 µM forskolin, 4 h, 37 °C; pEC50 7.74±0.09. The text has this: CRE-luciferase cAMP reporter, HEK293 on CB2-ICL2 (i2)

Another assay deals with T2, CB2-ICL1 (i1).
T2 construct: gene CNR2; Flag-tagged CB2 with first intracellular loop replaced by that of CB1; HEK293
Conditions: agonist; inhibition of cAMP elevated by 10 µM forskolin, 4 h, 37 °C; pEC50 8.17±0.19. The text has this:
CRE-luciferase cAMP reporter, HEK293 on CB2-ICL1 (i1)

The next assay relates to T3, CB2-Cter (Cter).
T3 construct: gene CNR2; Flag-tagged CB2 with C-terminal tail replaced by that of CB1; HEK293
Conditions: agonist, 4 h, 37 °C. From the text: CRE-luciferase cAMP reporter, HEK293 on CB2-Cter (Cter)

The subject of a further assay is T4, CB2-ICL2ICL3 (i2i3).
T4 construct: gene CNR2; Flag-tagged CB2 with second and third intracellular loops of CB1; HEK293
Conditions: agonist; inhibition of cAMP elevated by 10 µM forskolin, 4 h, 37 °C; pEC50 8.47±0.15. From the text:
CRE-luciferase cAMP reporter, HEK293 on CB2-ICL2ICL3 (i2i3)

Assay [1] deals with T5, CB2-ICL2ICL3Cter (i2i3Cter).
T5 construct: gene CNR2; Flag-tagged CB2 with second and third intracellular loops and C-terminal tail of CB1; HEK293
Conditions: agonist; inhibition of cAMP elevated by 10 µM forskolin, 4 h, 37 °C; pEC50 8.48±0.22. From the text:
CRE-luciferase cAMP reporter, HEK293 on CB2-ICL2ICL3Cter (i2i3Cter)

In another assay the test system is T6, CB2-ICL3 (i3).
T6 construct: gene CNR2; Flag-tagged CB2 with third intracellular loop replaced by that of CB1; HEK293
Particulars: agonist; inhibition of cAMP elevated by 10 µM forskolin, 4 h, 37 °C; pEC50 7.99±0.22. The text has this:
CRE-luciferase cAMP reporter, HEK293 on CB2-ICL3 (i3)

The subject of the next assay is T7, CB2-ICL2Cter (i2Cter).
T7 construct: gene CNR2; Flag-tagged CB2 with second intracellular loop and C-terminal tail of CB1; HEK293
Particulars: agonist; stimulation of cAMP, no forskolin, 4 h, 37 °C; pEC50 6.85±0.1. From the text:
CRE-luciferase cAMP reporter, HEK293 on CB2-ICL2Cter (i2Cter)

The term EC50 denotes the concentration giving half of the maximal effect. With `Cc1c(C(=O)c2cccc3ccccc23)c2cccc3c2n1[C@H](CN1CCOCC1)CO3` [WIN55,212-2], the EC50 with CB2-ICL2 (i2) is 19.2 ± 4.4 nM; in the assay on CB2-ICL1 (i1) it was 8 ± 2.8 nM; in the assay with CB2-Cter (Cter) (P139LCter, stimulation of cAMP, no forskolin, pEC50 7.53±0.11), 29.8 ± 7.1 nM; in the assay with CB2-Cter (Cter) (inhibition of cAMP elevated by 10 µM forskolin, pEC50 8.23±0.03), 5.9 ± 0.4 nM; with CB2-ICL2ICL3 (i2i3), 3.8 ± 1.2 nM; in assay [1], 4.4 ± 2.4 nM. The EC50 in the assay on CB2-ICL3 (i3) is 13.4 ± 7.3 nM; with CB2-ICL2Cter (i2Cter), 149 ± 35 nM.

For the origin of these results see publication PMC3646771, “The Second Intracellular Loop of the Human Cannabinoid CB2 Receptor Governs G Protein Coupling in Coordination with the Carboxyl Terminal Domain” (PLoS ONE, 2013).
